Structures can show the parent of a compound that is named as a salt. Where two headings read alike, the source gives them in different places.
How the values were obtained:
[1] = test system: Plasmodium falciparum strain NF54; experiment: Growth inhibition of Plasmodium falciparum NF54 (chloroquine-sensitive) in vitro, [G-3H]-hypoxanthin incorporation; assay type: cell-based; settings: chloroquine-sensitive strain NF54, 72 h, read-out: IC50 for P. falciparum NF54
How it was run: (§1)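 Asynchronous intraerythrocytic cultures in human A+ erythrocytes (0.7% parasitemia, 2.5% suspension) in RPMI 1640 with HEPES, NaHCO3 and human serum, exposed to compound titrated over 6-7 steps for 72 h at 37° C, 3% O2. Growth by [G-3H]-hypoxanthin incorporation against untreated controls; IC50 by logit regression.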

[2] = test system: Plasmodium falciparum K1; experiment: Growth inhibition of Plasmodium falciparum K1 (chloroquine-resistant) in vitro, [G-3H]-hypoxanthin incorporation; assay type: cell-based, Plasmodium falciparum (strain K1); settings: for IC50: Plasmodium falciparum, K1, 72 h, read-out: IC50 for P. falciparum K1; for Resistance index: ratio of the IC50 for K1 and the IC50 for NF54
How it was run: as §1

[3] = test system: Plasmodium berghei; experiment: animal or person; assay type: in vivo, Plasmodium berghei (strain ANKA) in mice; settings: Plasmodium berghei, mice, blood smears 48 h after treatment
How it was run: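 Male albino mice (~25 g) infected i.v. on D0 with P. berghei ANKA (0.2 ml of 10^8 parasitized erythrocytes/ml); single s.c. and p.o. dose 24 h post-infection, 10 mg/kg screen then titration.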

[4] = po, single peroral dose of 10 mg/kg, read-out: Growth inhibition in % after po administration (GI%, percentage reduction of the parasitemia)
[5] = sc, single subcutaneous dose of 10 mg/kg, read-out: Growth inhibition in % after sc administration (GI%, percentage reduction of the parasitemia)

SMILES | IC50 [1] [µg/mL] | IC50 [2] [µg/mL] | Resistance index [2] | inhibition in vivo at 10 mg/kg [3, 4] [%] | inhibition in vivo at 10 mg/kg [3, 5] [%]
CCN(CC)c1ccc(CNC(C)(C)CNc2ccnc3cc(Cl)ccc23)cc1.Cl.Cl.Cl [Example 46, N1-(7-Chloro-quinolin-4-yl)-N2-(4-diethylamino-benzyl)-2-methyl-propane-1,2-diamine trihydrochloride] | 0.0101 | 0.0126 | 1.2 | 99.7 | 99
CC(C)(CNc1ccnc2cc(Cl)ccc12)NCc1ccc([N+](=O)[O-])cc1 [Example 47, N1-(7-Chloro-quinolin-4-yl)-N2-(4-nitro-benzyl)-2-methy-propane-1,2-diamine dihydrochloride] | 0.0094 | 0.0136 | 1.4 | 70 | 79
CC(C)(CNc1ccnc2cc(Cl)ccc12)NCc1cccc(C#N)c1.Cl.Cl [Example 48, N1-(7-Chloro-quinolin-4-yl)-N2-(3-cyano-benzyl)-2-methyl-propane-1,2-diamine dihydrochloride] | 0.0123 | 0.0159 | 1.3 | 99.9 | 99.9
CC(C)(CNc1ccnc2cc(Cl)ccc12)NCc1ccc(C#N)cc1.Cl.Cl [Example 49, N1-(7-Chloro-quinolin-4-yl)-N2-(4-cyano-benzyl)-2-methyl-propane-1,2-diamine dihydrochloride] | 0.0082 | 0.0124 | 1.5 | 88 | 87
CC(C)c1ccc(CNC(C)(C)CNc2ccnc3cc(Cl)ccc23)cc1.Cl.Cl [Example 50, N1-(7-Chloro-quinolin-4-yl)-N2-(4-isopropyl-benzyl)-2-methyl-propane-1,2-diamine dihydrochloride] | 0.0142 | 0.0143 | 1.0 | 93 | 96
CC(C)(CNc1ccnc2cc(Cl)ccc12)NCc1ccc(-c2ccccc2)cc1 [Example 51, N1-(7-Chloro-quinolin-4-yl)-N2-(bipenyl-4-yl-methyl)-2-methyl-propane-1,2-diamine dihydrochloride] | 0.0123 | 0.0091 | 0.7 | 82 | 99
CC(C)(CNc1ccnc2cc(Cl)ccc12)NCc1ccccn1.Cl.Cl.Cl [Example 56, N1-(7-Chloro-quinolin-4-yl)-N2-(pyridin-2-yl-methyl)-2-methyl-propane-1,2-diamine trihydrochloride] | 0.0313 | 0.0537 | 1.7 | 98 | 97
CC(C)(CNc1ccnc2cc(Cl)ccc12)NCc1cccnc1.Cl.Cl.Cl [Example 57, N1-(7-Chloro-quinolin-4-yl)-N2-(pyridin-3-yl-methyl)-2-methyl-propane-1,2-diamine trihydrochloride] | 0.0217 | 0.0282 | 1.3 | 99.4 | 99.7
CC(C)(CNc1ccnc2cc(Cl)ccc12)NCc1ccnc2ccccc12.Cl.Cl.Cl [Example 58, N1-(7-Chloro-quinolin-4-yl)-N2-(quinolin-4-yl-methyl)-2-methyl-propane-1,2-diamine trihydrochloride] | 0.0293 | 0.069 | 2.4 | 72 | 88
Cl.Cl.Clc1ccc2c(N[C@H]3CCCC[C@@H]3NCc3ccccc3)ccnc2c1 [Example 60, (1S,2S)-N1-(7-Chloro-quinolin-4-yl)-N2-(benzyl)-cyclohexane-1,2-diamine hydrochloride (1:2)] | 0.0077 | 0.0122 | 1.6 | 67 | 87

From patent US5948791A, “Quinoline derivatives for treating malaria” (Hoffmann-La Roche Inc., priority 1995, dated 1999)
